{
  "source": "paper PMC8903829",
  "about": "(eLife, 2022)",
  "key": {"Scn8a^N1768D/+ mice": {"system": "Scn8a^N1768D/+ mice", "experiment": "Modified 6 Hz psychomotor seizure assay", "format": "in vivo, mouse", "procedure": "Phenytoin was formulated in physiologic saline and was administered intraperitoneally (i.p.) using a 25-gauge needle at a dose volume of 10 mL/kg. All compounds were administered 2 hr prior to electrical seizure induction for all seizure models employed in this study.\nScn8a^N1768D/+heterozygous mice were tested at 5 weeks of age (p35). The modified 6 Hz seizure assay in Scn8a^N1768D/+heterozygous mice was adapted from the traditional 6 Hz assay psychomotor seizure assay to provide a measure of in vivo on target (NaV1.6 mediated) efficacy ([Barton et al., 2001]). The modified assay used a low frequency (6 Hz) but long-duration stimulation (3 s) to induce seizures. […] An electroshock (6 Hz, 12 mA) was delivered for 3 s (at 0.3-ms pulse interval) by corneal electrodes (Electro Convulsive Therapy Unit 57,800 from Ugo Basile). Immediately prior to the electroshock, the animals’ eyes were anesthetized with a drop of Alcaine (0.5% proparacaine hydrochloride).\nAn animal was considered protected in the assay upon prevention of GTC with hindlimb extension and was then scored ‘0’. An animal displaying GTC with hindlimb extension was considered not protected and is then scored ‘1’. The experimenter scoring the seizure behavior was blinded to the treatment."}, "Sprague Dawley rats": {"system": "Sprague Dawley rats", "experiment": "Observation of potential adverse behavior (behavioral signs) in the rat DC-MES studies", "format": "in vivo", "conditions": "for behavioral signs concentration (BSC) / plasma EC50 ratio (Tolerability / EC50 Rat MES): rat DC-MES", "procedure": "Animals were observed by the scientist(s) responsible for dosing for the first 30 min after dosing for and again at the time of assay (2 hr post dose) for signs of abnormal behavior."}, "[1]": {"experiment": "Bioanalytical assessment of plasma and brain concentrations after 6 Hz assay", "format": "in vivo, mouse", "conditions": "Scn8a^N1768D/+, mouse, in vivo, SCN8A mouse 6HZ", "procedure": "Approximately 0.5 mL of blood was collected from each mouse at the end of the assay via cardiac puncture under deep anesthesia. The blood samples were collected in a syringe and transferred to tubes containing EDTA. Blood was stored at 4 °C until centrifuged within 30 min of collection. Plasma was harvested and placed on dry ice and stored in a freezer set to maintain a temperature of –70°C to –80°C until analysis. Brains were harvested immediately after blood collection and placed on dry ice prior to storage in a freezer set to maintain a temperature of –70°C to –80°C until analysis.\nExtraction of plasma samples was carried out by protein precipitation using acetonitrile. Plasma samples (50 µL) were mixed with 50 µL of internal standard (IS) solution in water followed by addition of 10 µL of concentrated ortho-phosphoric acid and 200 µL of acetonitrile. Samples were vortexed for 30 seconds, centrifuged at 13,000 rpm for 20 min, decanted in to a 96-well plate, and further centrifuged at 4000 rpm for 20 min. The samples were analyzed by UHPLC-ESI-MS/MS as described below.\nPrior to extraction, pre-weighed whole brains were homogenized in 1:1 acetonitrile/water (v/v) (4 mL per mouse brain) using an IKA T18 ULTRA-TURRAX Homogenizer at the setting of 4 for approximately 2 min. The homogenate was centrifuged at 13,000 rpm for 20 min and 50 µL of the supernatant were treated exactly as described above for plasma samples. […]\nSamples were analyzed by UHPLC-ESI MS/MS using a TQ-5500 Sciex triple quadrupole mass spectrometer equipped with a Shimadzu Nexera UHPLC pump and auto-sampler system using an ACE C18 PFP, 2.50 × 50 mm, 1.7 µm particle size column and gradient elution consisting of solvent A (0.1% formic acid in water) and solvent B (0.1% formic acid in acetonitrile) starting at 20% B from 0 min to 0.4 min and then increased to 100% B from 0.4 min to 0.6 min. At 2.0 min, the mobile phase composition was switched back to […] for 1 min. The flow rate used throughout the experiment was […]. […] The UHPLC-ESI MS/MS system was controlled by Analyst 1.6.\nSample concentrations were determined using a linear calibration function, weighted 1 /X, generated by the regression of analyte to IS peak area ratios in the standard samples to their respective concentrations. Acceptance criteria for the analytical run required that the back calculated values of the standards and the QC samples fell within ±20% of their nominal values, except for the lowest standard or lower limit of quantitation (LLOQ), for which the acceptance criterion was ±25%. At least 6 out of 12 standard points had to show back-calculated values within ±20% of their nominal concentrations for the calibration to be accepted. At least three QC samples, one at each level, had to show back-calculated values within ±20% of their nominal concentrations for the whole sample batch to be valid."}, "[2]": {"experiment": "Bioanalytical assessment of plasma and brain concentrations after rat DC-MES assay", "format": "in vivo", "conditions": "rat, in vivo, Rat DC-MES"}},
  "data": [
    {"smiles": "COC[C@@H](NC(C)=O)C(=O)NCc1ccccc1", "note": "[lacosamide, Lacosamide, reference compound]", "values": [
      {"measurement": "EC50", "setting": "Scn8a^N1768D/+ mice; Mus musculus, 2 h, read-out: brain EC50", "result": 3.3, "unit": "µM"},
      {"measurement": "SCN8A mouse 6HZ Fraction of animals seizing", "setting": "Scn8a^N1768D/+ mice; Study18007, 3 mg/kg", "result": 0.429},
      {"measurement": "SCN8A mouse 6HZ Fraction of animals seizing", "setting": "Scn8a^N1768D/+ mice; Study18007, 10 mg/kg", "result": 0.286},
      {"measurement": "SCN8A mouse 6HZ Fraction of animals seizing", "setting": "Scn8a^N1768D/+ mice; Study18007, 30 mg/kg", "result": 0.286},
      {"measurement": "SCN8A mouse 6HZ Fraction of animals seizing", "setting": "Scn8a^N1768D/+ mice; Study18011, 1 mg/kg", "result": 0.858},
      {"measurement": "SCN8A mouse 6HZ Fraction of animals seizing", "setting": "Scn8a^N1768D/+ mice; Study18011, 30 mg/kg", "result": 0.5},
      {"measurement": "SCN8A mouse 6HZ Fraction of animals seizing", "setting": "Scn8a^N1768D/+ mice; Study18011, 56 mg/kg", "result": 0.286},
      {"measurement": "SCN8A mouse 6HZ Fraction of animals seizing", "setting": "Scn8a^N1768D/+ mice; Study18028, 10 mg/kg", "result": 0.375},
      {"measurement": "SCN8A mouse 6HZ Fraction of animals seizing", "setting": "Scn8a^N1768D/+ mice; Study18042, 10 mg/kg", "result": 0.5},
      {"measurement": "minimal plasma concentration provoking behavioral signs (BSC)", "setting": "Sprague Dawley rats; rat", "result": 123, "unit": "µM"},
      {"measurement": "behavioral signs concentration (BSC) / plasma EC50 ratio (Tolerability / EC50 Rat MES)", "setting": "Sprague Dawley rats", "result": 5.0, "unit": "fold"},
      {"measurement": "behavioral signs concentration (BSC) / plasma EC50 ratio (Tolerability / EC50 Rat MES)", "setting": "Sprague Dawley rats; listed as Lacosamide", "result": 6.3, "unit": "fold"},
      {"measurement": "concentration at 2 h", "setting": "[1]; 1 mg/kg, Study18011, 1 mg/kg, read-out: Mean [Brain]", "result": 0.728, "unit": "µM"},
      {"measurement": "concentration at 2 h", "setting": "[1]; 1 mg/kg, Study18011, 1 mg/kg, read-out: Mean [Palsma]", "result": 1.12, "unit": "µM"},
      {"measurement": "concentration at 2 h", "setting": "[1]; 3 mg/kg, Study18007, 3 mg/kg, read-out: Mean [Brain]", "result": 2.84, "unit": "µM"},
      {"measurement": "concentration at 2 h", "setting": "[1]; 3 mg/kg, Study18007, 3 mg/kg, read-out: Mean [Palsma]", "result": 3.48, "unit": "µM"},
      {"measurement": "concentration at 2 h", "setting": "[1]; 10 mg/kg, Study18007, 10 mg/kg, read-out: Mean [Brain]", "result": 9.32, "unit": "µM"},
      {"measurement": "concentration at 2 h", "setting": "[1]; 10 mg/kg, Study18007, 10 mg/kg, read-out: Mean [Palsma]", "result": 10.7, "unit": "µM"},
      {"measurement": "concentration at 2 h", "setting": "[1]; 10 mg/kg, Study18028, 10 mg/kg, read-out: Mean [Brain]", "result": 7.58, "unit": "µM"},
      {"measurement": "concentration at 2 h", "setting": "[1]; 10 mg/kg, Study18028, 10 mg/kg, read-out: Mean [Palsma]", "result": 11.8, "unit": "µM"},
      {"measurement": "concentration at 2 h", "setting": "[1]; 10 mg/kg, Study18042, 10 mg/kg, read-out: Mean [Brain]", "result": 3.27, "unit": "µM"},
      {"measurement": "concentration at 2 h", "setting": "[1]; 10 mg/kg, Study18042, 10 mg/kg, read-out: Mean [Palsma]", "result": 14.4, "unit": "µM"},
      {"measurement": "concentration at 2 h", "setting": "[1]; 30 mg/kg, Study18007, 30 mg/kg, read-out: Mean [Brain]", "result": 21, "unit": "µM"},
      {"measurement": "concentration at 2 h", "setting": "[1]; 30 mg/kg, Study18007, 30 mg/kg, read-out: Mean [Palsma]", "result": 25.2, "unit": "µM"},
      {"measurement": "concentration at 2 h", "setting": "[1]; 30 mg/kg, Study18011, 30 mg/kg, read-out: Mean [Brain]", "result": 19.2, "unit": "µM"},
      {"measurement": "concentration at 2 h", "setting": "[1]; 30 mg/kg, Study18011, 30 mg/kg, read-out: Mean [Palsma]", "result": 29.6, "unit": "µM"},
      {"measurement": "concentration at 2 h", "setting": "[1]; 56 mg/kg, Study18011, 56 mg/kg, read-out: Mean [Brain]", "result": 28.3, "unit": "µM"},
      {"measurement": "concentration at 2 h", "setting": "[1]; 56 mg/kg, Study18011, 56 mg/kg, read-out: Mean [Palsma]", "result": 44.7, "unit": "µM"},
      {"measurement": "concentration at 2 h", "setting": "[2]; 2 mg/kg, Study18060, 2 mg/kg, read-out: Mean [Brain]", "result": 0.641, "unit": "µM"},
      {"measurement": "concentration at 2 h", "setting": "[2]; 2 mg/kg, Study18060, 2 mg/kg, read-out: Mean [Palsma]", "result": 2.97, "unit": "µM"},
      {"measurement": "concentration at 2 h", "setting": "[2]; 6 mg/kg, Study18060, 6 mg/kg, read-out: Mean [Brain]", "result": 1.78, "unit": "µM"},
      {"measurement": "concentration at 2 h", "setting": "[2]; 6 mg/kg, Study18060, 6 mg/kg, read-out: Mean [Palsma]", "result": 8.43, "unit": "µM"},
      {"measurement": "concentration at 2 h", "setting": "[2]; 12 mg/kg, Study18060, 12 mg/kg, read-out: Mean [Brain]", "result": 3.74, "unit": "µM"},
      {"measurement": "concentration at 2 h", "setting": "[2]; 12 mg/kg, Study18060, 12 mg/kg, read-out: Mean [Palsma]", "result": 22.9, "unit": "µM"},
      {"measurement": "concentration at 2 h", "setting": "[2]; 100 mg/kg, Study18068, 100 mg/kg, read-out: Mean [Brain]", "result": 38.2, "unit": "µM"},
      {"measurement": "concentration at 2 h", "setting": "[2]; 100 mg/kg, Study18068, 100 mg/kg, read-out: Mean [Palsma]", "result": 73.5, "unit": "µM"}
    ]}
  ]
}
